Assay results: patent US20240092768A1, “CRYSTAL FORM OF ANTI-INFLUENZA VIRUS COMPOUND, PREPARATION METHOD FOR CRYSTAL FORM, AND USE OF CRYSTAL FORM” (XIZANG HAISCO PHARMACEUTICAL CO., LTD., priority 2021, published 2024)

Columns and labels:
IFVA/Mal/302/54 = test: cytopathic effect (CPE) antiviral assay in MDCK cells, IFVA/Mal/302/54; format: cell-based, influenza viruses; conditions: 120 h, CPE method, 5 days, CCK-8 cell viability
IFVA/Weiss/43 = test: cytopathic effect (CPE) antiviral assay in MDCK cells, IFVA/Weiss/43; format: cell-based, influenza viruses; conditions: 120 h, CPE method, 5 days, CCK-8 cell viability
IFV A/PR/8/34 = test: cytopathic effect (CPE) antiviral assay in MDCK cells, IFV A/PR/8/34; format: cell-based, influenza viruses; conditions: 120 h, CPE method, 5 days, CCK-8 cell viability
[1] = hygroscopicity experiment, dynamic vapor sorption (DVS); format: physicochemical; conditions: 25° C.
[2] = experiment of crystal form transformation in water; format: physicochemical; conditions: room temperature, stirring of magma for 7 days, XRPD

| SMILES | EC50 (IFVA/Mal/302/54) | EC50 (IFVA/Weiss/43) | EC50 (IFV A/PR/8/34) | weight change in a range of 0% RH to 80% RH ([1]; listed as amorphous form of the compound A) | crystal form after stirring of magma in water [2] | weight change in a range of 0% RH to 80% RH [1] |
| --- | --- | --- | --- | --- | --- | --- |
| Cc1nnn([C@@H](c2ccccc2)C2CCN(C(=O)c3cc(-c4nc5cc(NC(=O)[C@@H]6C[C@@H]6F)ccc5o4)ccn3)CC2)n1 [Compound A, (1S,2S)-2-fluoro-N-(2-(2-(4-((R)-(5-methyl-2H-tetrazol-2-yl)(phenyl)methyl)piperidine-1-carbonyl)pyridin-4-yl)benzo[d]oxazol-5-yl)cyclopropane-1-carboxamide] | 14 nM | 3 nM | 12 nM | approximately 3.8% | – | – |
| Cc1nnn([C@@H](c2ccccc2)C2CCN(C(=O)c3cc(-c4nc5cc(NC(=O)[C@@H]6C[C@@H]6F)ccc5o4)ccn3)CC2)n1 [crystal form I, (1S,2S)-2-fluoro-N-(2-(2-(4-((R)-(5-methyl-2H-tetrazol-2-yl)(phenyl)methyl)piperidine-1-carbonyl)pyridin-4-yl)benzo[d]oxazol-5-yl)cyclopropane-1-carboxamide] | – | – | – | – | remained unchanged after the magma | approximately 0.3% |
